Common to all, as to format: in vivo
Assay [1] relates to Verconica persica (VERPE). The assay can be described thus: Post-emergence herbicidal action against VERPE. Put shortly:
(§1)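 Greenhouse plants sprayed at the one-leaf stage, 2–3 weeks after sowing, with WP or EC formulations plus 0.5% additive at 600 l/ha water. Activity rated visually after about 3 weeks versus untreated controls (100% = dead, 0% = like control), at 320 g/ha or lower.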

In assay [2] the test system is Viola tricolor (VIOTR). The assay can be described thus: Pre-emergence herbicidal action against VIOTR. Put shortly:
(§2)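 Seeds sown in pots and covered with soil; WP or EC formulations sprayed onto the soil surface at 600 l/ha water with 0.5% additive, at 320 g/ha or lower. Greenhouse growth for about 3 weeks, then visual scoring as % effect against untreated controls (100% = plants dead).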

The subject of assay [3] is Viola tricolor (VIOTR). The experiment in a line: Post-emergence herbicidal action against VIOTR. In outline: as §1
Assay [4] relates to Verconica persica (VERPE). The experiment in a line: Pre-emergence herbicidal action against VERPE. Put shortly: as §2
Assay [5] concerns Setaria viridis (SETVI). The experiment in a line: Pre-emergence herbicidal action against SETVI. In outline: as §2
The test system of assay [6] is Lolium rigidum (LOLRI). The experiment in a line: Pre-emergence herbicidal action against LOLRI. Put shortly: as §2
Assay [7] has as its system Pharbitis purpurea (PHBPU). The experiment in a line: Pre-emergence herbicidal action against PHBPU. Put shortly: as §2
Assay [8] deals with Pharbitis purpurea (PHBPU). The assay can be described thus: Post-emergence herbicidal action against PHBPU. Put shortly: as §1
Assay [9] concerns Avena fatua (AVEFA). The assay can be described thus: Post-emergence herbicidal action against AVEFA. The settings on record: visual rating about 3 weeks after treatment. In outline:
as §1

The subject of assay [10] is Matricaria inodora (MATIN). The experiment in a line: Post-emergence herbicidal action against MATIN. Put shortly: as §1

In the case of `COC(=O)C(C)COC(=O)C(C)Oc1nn(-c2ccccn2)c(-c2ccc(F)nc2)c1Cl` (stereo not shown) [Example I-291], the “Post-emergence action against VERPE in %” value in [1] (320 g/ha, VERPE) was 80%. The “Pre-emergence action against VIOTR in %” value in [2] (320 g/ha, Viola tricolor) amounted to 100%; in assay [2] (dosage 80 g/ha), 90%. Further, the “Post-emergence action against VIOTR in %” value in [3] (80 g/ha) and in assay [3] (320 g/ha) was 80% each time. Further, in assay [4] (dosage 320 g/ha), the “Pre-emergence action against VERPE in %” value is on record as 80%. Moreover, the “Pre-emergence action against SETVI in %” value in [5] (dosage 80 g/ha) and in [5] (dosage 320 g/ha) was 90% in each case. In addition, the “Pre-emergence action against LOLRI in %” value in [6] (dosage 80 g/ha) was 90%; in assay [6] (dosage 320 g/ha), 100%. Besides, the “Pre-emergence action against PHBPU in %” value in assay [7] (dosage 320 g/ha) is recorded as 80%. Also, the results for the “Post-emergence action against PHBPU in %” value in assay [8] (dosage 80 g/ha) and in assay [8] (dosage 320 g/ha) were 80% and 90%, respectively. Besides, the “Post-emergence action against AVEFA in %” value in [9] (80 g/ha) and in assay [9] (320 g/ha) was 80% each time.
For `COC(=O)COc1nn(-c2ncccc2F)c(-c2cncc(F)c2)c1C1CC1` [Example I-167], the “Post-emergence action against VERPE in %” value in assay [1] (320 g/ha, VERPE) was 80%; in [1] (dosage 80 g/ha), 80%. In addition, the “Pre-emergence action against VIOTR in %” value in assay [2] (320 g/ha, Viola tricolor) was determined as 100%; in [2] (dosage 80 g/ha) it was 100%. The “Post-emergence action against VIOTR in %” value in assay [3] (80 g/ha) and in [3] (320 g/ha) was 80% throughout. Moreover, the “Pre-emergence action against VERPE in %” value in assay [4] (dosage 80 g/ha) and in assay [4] (dosage 320 g/ha) was 100% each time. The “Pre-emergence action against SETVI in %” value in [5] (dosage 80 g/ha) and in [5] (dosage 320 g/ha) was 100% each time. In addition, the “Pre-emergence action against LOLRI in %” value in [6] (dosage 80 g/ha) and in [6] (dosage 320 g/ha) was 100% in each case. In addition, the “Pre-emergence action against PHBPU in %” value in assay [7] (dosage 80 g/ha) and in [7] (dosage 320 g/ha) was 90% each time. In addition, the “Post-emergence action against PHBPU in %” value in assay [8] (dosage 80 g/ha) and in [8] (dosage 320 g/ha) was 90% in each case. Further, the “Post-emergence action against AVEFA in %” value came to 80% in assay [9] (80 g/ha) and 90% in assay [9] (320 g/ha).
Take `C[C@@H](Oc1nn(-c2ncccc2F)c(-c2ccc(F)nc2)c1Br)C(=O)O` [Example I-18]: the “Post-emergence action against MATIN in %” value in [10] (dosage 80 g/ha) and in [10] (dosage 320 g/ha) was 80% throughout. Also, the “Pre-emergence action against VIOTR in %” value in assay [2] (320 g/ha, Viola tricolor) came out at 100%; in assay [2] (dosage 80 g/ha), 100%. In addition, the “Post-emergence action against VIOTR in %” value in assay [3] (320 g/ha) was determined as 80%. The results for the “Pre-emergence action against VERPE in %” value in assay [4] (dosage 80 g/ha) and in assay [4] (dosage 320 g/ha) were 90% and 100%, respectively. Besides, the “Pre-emergence action against SETVI in %” value in assay [5] (dosage 80 g/ha) and in assay [5] (dosage 320 g/ha) was 100% each time. The “Pre-emergence action against LOLRI in %” value in assay [6] (dosage 80 g/ha) amounted to 90%; in assay [6] (dosage 320 g/ha), 100%. Also, the “Pre-emergence action against PHBPU in %” value in assay [7] (dosage 320 g/ha) is given as 90%. Also, in assay [9] (320 g/ha), the “Post-emergence action against AVEFA in %” value is on record as 80%.
As to `O=C(O)COc1nn(-c2ncccc2F)c(-c2cncc(F)c2)c1C1CC1` [Example I-175], the “Post-emergence action against VERPE in %” value in [1] (320 g/ha, VERPE) amounted to 80%; in assay [1] (dosage 80 g/ha), 80%. In addition, the “Pre-emergence action against VIOTR in %” value amounted to 100% in [2] (320 g/ha, Viola tricolor) and 100% in [2] (dosage 80 g/ha). Also, the “Post-emergence action against VIOTR in %” value in assay [3] (80 g/ha) and in assay [3] (320 g/ha) was 80% in each case. Besides, the “Pre-emergence action against VERPE in %” value in [4] (dosage 80 g/ha) and in [4] (dosage 320 g/ha) was 100% in each case. Moreover, the “Pre-emergence action against SETVI in %” value in assay [5] (dosage 80 g/ha) came out at 90%; in [5] (dosage 320 g/ha), 100%. Further, the “Pre-emergence action against LOLRI in %” value in assay [6] (dosage 80 g/ha) and in [6] (dosage 320 g/ha) was 100% throughout. Further, the “Pre-emergence action against PHBPU in %” value in assay [7] (dosage 80 g/ha) turned out to be 80%; in assay [7] (dosage 320 g/ha) it was 90%. Also, the “Post-emergence action against PHBPU in %” value in assay [8] (dosage 80 g/ha) is on record as 80%; in assay [8] (dosage 320 g/ha), 90%. In addition, the “Post-emergence action against AVEFA in %” value in assay [9] (80 g/ha) and in [9] (320 g/ha) was 80% each time.
As for `COC(=O)COc1nn(-c2ncccc2F)c(-c2cncc(F)c2)c1Br` [Example I-16], the “Post-emergence action against MATIN in %” value in assay [10] (dosage 320 g/ha) stood at 80%. Also, the “Post-emergence action against VERPE in %” value in assay [1] (320 g/ha, VERPE) is 90%; in assay [1] (dosage 80 g/ha), 80%. For the same molecule, the “Pre-emergence action against VIOTR in %” value in [2] (320 g/ha, Viola tricolor) was determined as 100%; in assay [2] (dosage 80 g/ha), 100%. In addition, the “Post-emergence action against VIOTR in %” value in assay [3] (80 g/ha) and in assay [3] (320 g/ha) was 80% throughout. Also, in assay [4] (dosage 320 g/ha), the “Pre-emergence action against VERPE in %” value is 90%. Also, the results for the “Pre-emergence action against SETVI in %” value in assay [5] (dosage 80 g/ha) and in assay [5] (dosage 320 g/ha) were 90% and 100%, respectively. The “Pre-emergence action against LOLRI in %” value is recorded as 90% in assay [6] (dosage 80 g/ha) and 100% in assay [6] (dosage 320 g/ha). In addition, in [7] (dosage 320 g/ha), the “Pre-emergence action against PHBPU in %” value was 80%. Moreover, the “Post-emergence action against PHBPU in %” value in assay [8] (dosage 80 g/ha) and in assay [8] (dosage 320 g/ha) was 90% each time.

Values taken from patent publication US20240041042A1, “1-(PYRIDYL)-5-AZINYLPYRAZOLE DERIVATIVES, AND THEIR USE FOR CONTROL OF UNDESIRED PLANT GROWTH” (Bayer Aktiengesellschaft, priority 2020, published 2024).
